Entries after “also recorded” stand apart in the source; their conditions may differ.
What was measured:
Jurkat cells [1] = test: Metabolic labeling with inhibitors
Jurkat T cell lysates = test: Streptavidin affinity enrichment and Na2S2O4 elution of azido-chemical reporter labeled Jurkat T cell lysates reacted with alk-diazo-biotin; type: cell-based, human; details: Coomassie staining of polypeptides eluted from streptavidin beads
M. smegmatis = test: Labeling of acylated proteins in bacterial cells with alkynyl-chemical reporters; type: cell-based
[2] = test system: acetylated proteins such as histones; test: Metabolic labeling of acetylated proteins with very short chain alkynyl-chemical reporters, in-gel fluorescence; type: cell-based, human
Jurkat T cells [3] = test: Metabolic labeling of Jurkat T cells with alkynyl-acetate analogs, CuAAC with az-Rho, in-gel fluorescence scanning; details: metabolically-labeled Jurkat T cells
Jurkat cells [4] = test: Competition of metabolic labeling with naturally occurring fatty acids; details: 2 hours, myristic acid 0, 10 or 100 μM, palmitic acid 0, 100 or 200 μM
[5] = Absorbance and fluorescence studies of clickable CyFur dyes; type: physicochemical; details: for εmax^b (M^−1cm^−1): in MeOH, at 470 nm for az-CyFur-1, az-CyFur-2 and at 580 nm for alk-CyFur, averaged over three independent experiments; for ΦF^c: quantum yield referenced against cresyl violet, alk-CyFur excited at 580 nm, az-CyFur-1 and az-CyFur-2 at 470 nm; for λmax^a (nm) (first column) / λmax^a (nm) (second column): spectra obtained in DMSO
Method: Absorbance and fluorescence studies. Absorption spectra and fluorescence data were collected on SpectraMax M2 multi-detection reader (Molecular Devices). The spectra in solution were obtained at 25° C. using a quartz cuvette with a path length of 1 cm. Fluorescence quantum yields (ΦF) of CyFur dyes were determined against cresyl violet (ΦF=0.54 in methanol).

Lck = test: Pulse-chase tandem imaging of palmitate turnover on Lck in Jurkat T cells; type: cell-based, human; details: for effect of chemical inhibitor on palmitate turnover on Lck: added during the chase, 20 μM MAFP, 100 μM 2BP
p300 = biological target: T1, p300 (Homo sapiens, UniProt Q09472); test: MALDI-TOF analysis of p300-catalyzed acylation of histone H3 peptide in vitro; type: biochemical; details: 20 μM analog, MS analysis
T1 construct: made in house; host or cells: SF9 insect cells, baculovirus
Method: Cells were lysed in lysis buffer (20 mM Tris, pH 7.5, 500 mM NaCl, 4 mM MgCl2, 0.4 mM EDTA, 20% glycerol, 2 mM DTT, and supplemented with protease inhibitors). Clarified cell lysates were diluted to 300 mM NaCl, and NP-40 was added to 0.1% final concentration. Flag M2 agarose resin (Sigma) was added to the lysate and incubated for 4 hours at 4° C. […] Protein concentration and purity were estimated by comparison to BSA standards on SDS gels stained with Gelcode Blue stain (Pierce).

Jurkat T cells [6] = test: Proteomic analysis and modification site mapping of alkynyl-acetate analog-labeled proteins; type: cell-based, human; details: for qualitative comparison among alkynyl-acetate analogs as chemical reporter for protein acetylation: proteomics data and in vitro p300-acylation studies

T1 sequence (Q09472 whole entry): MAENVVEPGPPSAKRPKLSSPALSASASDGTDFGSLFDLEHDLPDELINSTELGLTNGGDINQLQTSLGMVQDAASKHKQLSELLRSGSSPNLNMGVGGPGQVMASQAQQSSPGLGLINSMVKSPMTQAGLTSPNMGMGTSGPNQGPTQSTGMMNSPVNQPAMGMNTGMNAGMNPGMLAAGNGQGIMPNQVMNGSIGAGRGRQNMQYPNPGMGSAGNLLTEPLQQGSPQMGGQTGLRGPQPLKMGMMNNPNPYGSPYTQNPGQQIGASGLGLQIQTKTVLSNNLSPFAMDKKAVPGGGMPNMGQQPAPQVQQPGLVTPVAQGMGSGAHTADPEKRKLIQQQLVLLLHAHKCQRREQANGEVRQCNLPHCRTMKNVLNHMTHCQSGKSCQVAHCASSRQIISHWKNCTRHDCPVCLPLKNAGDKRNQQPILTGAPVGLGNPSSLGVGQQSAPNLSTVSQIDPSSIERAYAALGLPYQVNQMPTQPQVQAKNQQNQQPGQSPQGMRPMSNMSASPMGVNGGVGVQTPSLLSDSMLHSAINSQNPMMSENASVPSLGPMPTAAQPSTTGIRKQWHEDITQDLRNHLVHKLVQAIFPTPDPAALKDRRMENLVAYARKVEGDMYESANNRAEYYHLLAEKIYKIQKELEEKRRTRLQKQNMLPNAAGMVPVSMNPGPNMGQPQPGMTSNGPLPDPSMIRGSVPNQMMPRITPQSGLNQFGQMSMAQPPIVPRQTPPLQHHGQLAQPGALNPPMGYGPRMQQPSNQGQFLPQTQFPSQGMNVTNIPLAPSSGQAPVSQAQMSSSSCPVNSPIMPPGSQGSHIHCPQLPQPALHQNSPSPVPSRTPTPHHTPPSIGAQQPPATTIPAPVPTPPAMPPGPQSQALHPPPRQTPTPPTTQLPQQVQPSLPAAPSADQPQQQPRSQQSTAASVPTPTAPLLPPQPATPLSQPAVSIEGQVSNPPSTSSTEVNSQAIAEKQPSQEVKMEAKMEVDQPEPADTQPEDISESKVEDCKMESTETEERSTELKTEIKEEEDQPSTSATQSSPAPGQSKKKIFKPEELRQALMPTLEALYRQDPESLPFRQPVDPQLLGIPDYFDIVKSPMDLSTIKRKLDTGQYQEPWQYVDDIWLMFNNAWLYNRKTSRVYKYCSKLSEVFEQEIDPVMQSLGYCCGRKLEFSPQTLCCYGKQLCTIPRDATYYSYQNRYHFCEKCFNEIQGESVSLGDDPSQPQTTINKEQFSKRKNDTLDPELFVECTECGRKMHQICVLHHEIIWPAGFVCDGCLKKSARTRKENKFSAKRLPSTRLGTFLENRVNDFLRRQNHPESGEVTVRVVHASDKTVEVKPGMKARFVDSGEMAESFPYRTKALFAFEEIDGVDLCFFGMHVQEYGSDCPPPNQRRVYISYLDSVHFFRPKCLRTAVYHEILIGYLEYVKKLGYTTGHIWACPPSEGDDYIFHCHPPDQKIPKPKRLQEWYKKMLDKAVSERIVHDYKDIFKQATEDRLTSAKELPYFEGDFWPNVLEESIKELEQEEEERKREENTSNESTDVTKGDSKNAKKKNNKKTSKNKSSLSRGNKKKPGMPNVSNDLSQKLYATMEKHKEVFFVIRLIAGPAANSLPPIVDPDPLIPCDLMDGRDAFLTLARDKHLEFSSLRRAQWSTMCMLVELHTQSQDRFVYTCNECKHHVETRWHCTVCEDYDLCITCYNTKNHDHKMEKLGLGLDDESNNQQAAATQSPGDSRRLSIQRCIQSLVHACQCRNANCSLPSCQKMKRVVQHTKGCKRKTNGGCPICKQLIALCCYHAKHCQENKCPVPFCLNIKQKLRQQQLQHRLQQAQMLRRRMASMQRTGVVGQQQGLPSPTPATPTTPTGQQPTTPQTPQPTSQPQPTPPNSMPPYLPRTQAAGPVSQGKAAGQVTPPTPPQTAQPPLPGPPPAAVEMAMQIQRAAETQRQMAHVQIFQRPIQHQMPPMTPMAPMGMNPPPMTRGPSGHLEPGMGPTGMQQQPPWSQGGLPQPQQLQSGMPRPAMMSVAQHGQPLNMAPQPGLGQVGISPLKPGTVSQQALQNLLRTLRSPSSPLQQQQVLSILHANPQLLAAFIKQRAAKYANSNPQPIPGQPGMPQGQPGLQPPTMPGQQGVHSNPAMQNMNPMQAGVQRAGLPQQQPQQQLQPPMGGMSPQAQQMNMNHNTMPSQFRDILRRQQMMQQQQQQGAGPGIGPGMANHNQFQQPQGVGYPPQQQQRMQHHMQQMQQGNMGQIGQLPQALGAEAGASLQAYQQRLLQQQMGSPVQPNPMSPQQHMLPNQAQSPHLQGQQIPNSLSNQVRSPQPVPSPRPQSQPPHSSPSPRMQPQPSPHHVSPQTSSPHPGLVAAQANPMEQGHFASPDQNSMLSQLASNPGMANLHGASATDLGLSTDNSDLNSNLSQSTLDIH

SMILES: C#CCCCCCCCCCCCCCC(=O)O [alk-14, Hexadec-15-ynoic acid]
- class of acylated proteins targeted by the reporter (Jurkat cells [1]; from CHX and NH2OH sensitivity in Jurkat cell lysates): appears to represent a combination of alk-12 and alk-16 labeling

SMILES: [N-]=[N+]=NCCCCCCCCCCCCCCC(=O)O [az-15, 15-azido-pentadecanoic acid]
- proteins recovered from labeled cell lysates compared to control (-) (Jurkat T cell lysates): significantly greater amounts of proteins recovered

SMILES: C#CCCCC(=O)O [alk-4, hexa-5-ynoic acid]
- labeling of proteins in bacterial cells (M. smegmatis): labeled distinct proteins
- labeling of acetylated proteins [2]: found to label acetylated proteins such as histones
- relative efficiency of labeling acetylated proteins among alk-2, alk-3, alk-4 [2]: most efficient labeling of acetylated proteins; also recorded: more efficient

SMILES: C#CCC(=O)[O-].[Na+] [Analog 4, sodium 3-butynoate]
- labeling of known lysine-acetylated proteins (enriched core histones, immunoprecipitated histone H3) (Jurkat T cells [3]): specifically labeled

SMILES: CCCCCCCCCCCCCCCC(=O)O [palmitic acid]
- competition of alkynyl-fatty acid protein labeling (alk-12, alk-14, alk-16, 10 μM) (Jurkat cells [4]): alk-14 and alk-16 protein labeling is most effectively reduced

SMILES: C#CCCNc1ccc(/C=C/C2=C(C#N)C(=C(C#N)C#N)OC2(C)C)cc1 [alk-CyFur, (E)-2-(4-(4-(but-3-ynylamino)styryl)-3-cyano-5,5-dimethylfuran-2(5H)-ylidene)malononitrile]
- absorption (abs) maxima [5]: 580 nm
- emission (em) maxima [5]: 640 nm
- εmax^b (M^−1cm^−1) [5]: 33,933 M^−1cm^−1
- ΦF^c [5]: 0.0147
- λmax^a (nm) (first column) [5]: 580 nm
- λmax^a (nm) (second column) [5]: 640 nm

SMILES: CC1(C)OC(=C(C#N)C#N)C(C#N)=C1/C=C/c1ccc(NC(=O)OCCN=[N+]=[N-])cc1 [az-CyFur-1]
- absorption (abs) maxima [5]: 470 nm
- emission (em) maxima [5]: 580 nm
- εmax^b (M^−1cm^−1) [5]: 20,533 M^−1cm^−1
- ΦF^c [5]: 0.0067
- λmax^a (nm) (first column) [5]: 470 nm
- λmax^a (nm) (second column) [5]: 580 nm

SMILES: C#CCC(=O)O [alk-2, buta-3-ynoic acid]
- labeling of proteins in bacterial cells (M. smegmatis): labeled distinct proteins
- labeling of acetylated proteins [2]: found to label acetylated proteins such as histones

SMILES: O=S(=O)(F)Cc1ccccc1 [PMSF, phenylmethylsulfonyl fluoride, reference compound]
- effect of chemical inhibitor on palmitate turnover on Lck (Lck): no apparent effect on the initial rate of palmitate removal

SMILES: C#CCCSCCNC(=O)CCNC(=O)[C@H](O)C(C)(C)COP(=O)(O)OP(=O)(O)OC[C@H]1O[C@@H](n2cnc3c(N)ncnc32)[C@H](O)[C@@H]1OP(=O)(O)O [Analog 1, 3-butynyl-CoA]
- utilization as acyl-CoA donor for p300-catalyzed acylation of histone H3 peptide (p300): does not appear to be utilized efficiently by p300
- utilization as acyl-CoA donor for p300-catalyzed acylation of histone H3 peptide (p300; listed as 3-butynyl-CoA): not efficiently utilized by p300 in vitro

SMILES: CCCCCCCCCCCCCCC(Br)C(=O)O (stereo not drawn) [2-BP, 2-bromopalmitate, reference compound]
- effect of chemical inhibitor on palmitate turnover on Lck (Lck): decreased Lck depalmitoylation rate
- effect of inhibitor on alkynyl-fatty acid protein labeling (alk-12, alk-14, alk-16, 20 μM) (Jurkat cells [1]; Jurkat cells, CHX 10 μM, HMA 1 mM, 2-BP 50 μM, 30 minutes pre-incubation): reduced protein labeling with alk-12, alk-14 and alk-16

SMILES: CCCCCCCCCCCCCC(=O)O [myristic acid]
- competition of alkynyl-fatty acid protein labeling (alk-12, alk-14, alk-16, 10 μM) (Jurkat cells [4]): alk-12 protein labeling is selectively blocked

SMILES: C#CCCC(=O)[O-].[Na+] [Analog 5, sodium 4-pentynoate]
- labeling of known lysine-acetylated proteins (enriched core histones, immunoprecipitated histone H3) (Jurkat T cells [3]): specifically labeled
- sites of metabolic incorporation (MS/MS of enriched peptides) (Jurkat T cells [6]; Jurkat T cell lysates): metabolically incorporated into known sites of lysine acetylation on histone H2B, H3 and H4
- labeled proteins also identified by anti-acetyl-Lys proteomic studies (Jurkat T cells [6]; Jurkat T cells): 86%
- number of labeled proteins identified (Jurkat T cells [6]; Jurkat T cells, three independent experiments): approximately 194
- qualitative comparison among alkynyl-acetate analogs as chemical reporter for protein acetylation (Jurkat T cells [6]): optimal chemical reporter for detecting protein acetylation

SMILES: C#CCCCC(=O)[O-].[Na+] [Analog 6, sodium 5-hexynoate]
- labeling of known lysine-acetylated proteins (enriched core histones, immunoprecipitated histone H3) (Jurkat T cells [3]): specifically labeled
- qualitative comparison among alkynyl-acetate analogs as chemical reporter for protein acetylation (Jurkat T cells [6]): may also target cellular fatty-acylated proteins

SMILES: [N-]=[N+]=NCCCCCCCCCCCC(=O)O [az-12, 12-azido-dodecanoic acid]
- decay of reporter signal on Lck with excess myristate as the chase additive (Lck; over 6 hours): No significant decay
- proteins recovered from labeled cell lysates compared to control (-) (Jurkat T cell lysates): significantly greater amounts of proteins recovered

Reference: patent US20100203647A1, “Chemical Reporters of Protein Acylation” (THE ROCKEFELLER UNIVERSITY, priority 2008, published 2010)
